This is an account of results in ChEMBL document CHEMBL1142817, “Modeling K(m) values using electrotopological state: substrates for cytochrome P450 3A4-mediated metabolism” (Bioorg Med Chem Lett, 2005).

The series has as its target Cytochrome P450 3A4 (Homo sapiens, UniProt P08684). The series is described as follows: log (1/Km) value for human liver microsome cytochrome P450 3A4. The conditions noted are these: microsomes.

Structures are written as SMILES.

Sequence of Cytochrome P450 3A4 (P08684 whole entry): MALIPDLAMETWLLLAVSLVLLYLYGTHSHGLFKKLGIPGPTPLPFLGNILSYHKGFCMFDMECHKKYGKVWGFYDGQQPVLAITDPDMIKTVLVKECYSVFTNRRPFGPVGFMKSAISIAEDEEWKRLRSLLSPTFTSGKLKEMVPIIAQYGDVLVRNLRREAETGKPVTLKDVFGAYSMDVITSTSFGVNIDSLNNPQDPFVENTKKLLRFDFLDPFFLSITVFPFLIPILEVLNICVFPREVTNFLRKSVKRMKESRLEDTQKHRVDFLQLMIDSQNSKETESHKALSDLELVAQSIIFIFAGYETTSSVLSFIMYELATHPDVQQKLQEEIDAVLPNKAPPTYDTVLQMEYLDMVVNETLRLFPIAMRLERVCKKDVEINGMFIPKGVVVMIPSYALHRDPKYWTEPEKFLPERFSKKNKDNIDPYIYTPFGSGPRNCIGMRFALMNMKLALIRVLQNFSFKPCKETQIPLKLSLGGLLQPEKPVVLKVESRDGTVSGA

As to `C/C=C/c1ccc(OC)c(CN[C@H]2C3CCN(CC3)[C@H]2C(c2ccccc2)c2ccccc2)c1`, the “Log 1/Km” value is -1.3424. For the compound `O=C(N[C@H](/C=C/S(=O)(=O)c1ccccc1)CCc1ccccc1)[C@H](Cc1ccccc1)NC(=O)N1CCOCC1`, the “Log 1/Km” value is on record as -1.4843. In the case of `CN(C)c1ccc([C@H]2C[C@]3(C)[C@@H](CC[C@]3(O)CCCO)C3CCC4=CC(=O)CCC4=C32)cc1` (single isomer, unassigned) [ONAPRISTONE] it was -1.2923; in that of `O=[N+]([O-])c1ccc2ccc3cccc4ccc1c2c34` [1-NITROPYRENE], -0.5185. Consider `CN(C)Cc1nnc2n1-c1ccc(Cl)cc1C(c1ccccc1)=NC2` [ADINAZOLAM], for which the “Log 1/Km” value was -1.9628.

Consider `Cc1nnc2n1-c1ccc(Cl)cc1C(c1ccccc1)=NC2` [ALPRAZOLAM], for which the “Log 1/Km” value is given as -2.4232.

Take `CN(C)CCC=C1c2ccccc2CCc2ccccc21` [AMITRIPTYLINE]: the “Log 1/Km” value is -1.8407. With `ClC(Cl)Br` [BROMODICHLOROMETHANE], the “Log 1/Km” value is -1.4472. For the compound `CCCCN1CCCC[C@@H]1C(=O)Nc1c(C)cccc1C` [BUPIVACAINE], the “Log 1/Km” value is listed as -2.0967. Turning to `NC(=O)N1c2ccccc2C=Cc2ccccc21` [CARBAMAZEPINE], the “Log 1/Km” value was -2.6532. For `CC(C)(C)NCC(O)COc1cccc2c1CCC(=O)N2` (stereo not drawn) [CARTEOLOL], the “Log 1/Km” value was -1.8432.

With `CN(C)CCCC1(c2ccc(F)cc2)OCc2cc(C#N)ccc21` (stereo not drawn) [CITALOPRAM], the “Log 1/Km” value was -2.4548. As for `CC[C@H]1OC(=O)[C@H](C)[C@@H](O[C@H]2C[C@@](C)(OC)[C@@H](O)[C@H](C)O2)[C@H](C)[C@@H](O[C@@H]2O[C@H](C)C[C@H](N(C)C)[C@H]2O)[C@](C)(OC)C[C@@H](C)C(=O)[C@H](C)[C@@H](O)[C@]1(C)O` [CLARITHROMYCIN], the “Log 1/Km” value is given as -1.6875. As to `Nc1ccc(S(=O)(=O)c2ccc(N)cc2)cc1` [DAPSONE], the “Log 1/Km” value was -2.2304. `CC(=O)O[C@@]12CO[C@@H]1C[C@H](O)[C@@]1(C)C(=O)[C@H](O)C3=C(C)[C@@H](OC(=O)[C@H](O)[C@@H](NC(=O)OC(C)(C)C)c4ccccc4)C[C@@](O)([C@@H](OC(=O)c4ccccc4)[C@H]21)C3(C)C.O.O.O` [DOCETAXEL]: the “Log 1/Km” value is recorded as -0.0414. In the case of `CC[C@H]1OC(=O)[C@H](C)[C@@H](O[C@H]2C[C@@](C)(OC)[C@@H](O)[C@H](C)O2)[C@H](C)[C@@H](O[C@@H]2O[C@H](C)C[C@H](N(C)C)[C@H]2O)[C@](C)(O)C[C@@H](C)C(=O)[C@H](C)[C@@H](O)[C@]1(C)O` [ERYTHROMYCIN], the “Log 1/Km” value is listed as -1.7853. In the case of `CCOc1ccc2ccc(=O)oc2c1` [ETHOXYCOUMARIN] it was -3.4771; in that of `CN1C(=O)CN=C(c2ccccc2F)c2cc([N+](=O)[O-])ccc21` [FLUNITRAZEPAM], -2.1892. Consider `C[C@]12CCC(=O)C=C1CC[C@@H]1[C@@H]2[C@@H](O)C[C@@]2(C)[C@H]1CC[C@]2(O)C(=O)CO` [HYDROCORTISONE], for which the “Log 1/Km” value was -1.1818. Take `CCc1c2c(nc3ccc(OC(=O)N4CCC(N5CCCCC5)CC4)cc13)-c1cc3c(c(=O)n1C2)COC(=O)[C@]3(O)CC` [IRINOTECAN]: the “Log 1/Km” value is reported as -1.2648. For the compound `CN(C)c1ccc([C@H]2C[C@@]3(C)[C@@H](CC[C@@]3(O)/C=C\CO)[C@@H]3CCC4=CC(=O)CCC4=C32)cc1` [LILOPRISTONE], the “Log 1/Km” value is recorded as -0.9445. In the case of `COc1ccc2[nH]c([S+]([O-])Cc3ncc(C)c(OC)c3C)nc2c1` (stereo not drawn) [OMEPRAZOLE] it was -1.6902; in that of `CC(=O)O[C@H]1C(=O)[C@@]2(C)[C@H]([C@H](OC(=O)c3ccccc3)[C@]3(O)C[C@H](OC(=O)[C@H](O)[C@@H](NC(=O)c4ccccc4)c4ccccc4)C(C)=C1C3(C)C)[C@]1(OC(C)=O)CO[C@@H]1C[C@@H]2O` [PACLITAXEL], -1.2553. As to `O=c1[nH]c2ccccc2n1C1CCN(CCCC(c2ccc(F)cc2)c2ccc(F)cc2)CC1` [PIMOZIDE], the “Log 1/Km” value was -0.7559. In the case of `CO[C@H]1/C=C/O[C@@]2(C)Oc3c(C)c(O)c4c(c3C2=O)C2=NC3(CCN(CC(C)C)CC3)NC2=C(NC(=O)/C(C)=C\C=C\[C@H](C)[C@H](O)[C@@H](C)[C@@H](O)[C@@H](C)[C@H](OC(C)=O)[C@@H]1C)C4=O` [RIFABUTIN] it was -1.0373; in that of `C/C=C1/C[C@@H](C)[C@@](C)(O)C(=O)OCC2=CCN3CC[C@@H](OC1=O)[C@@H]23` [SENECIONINE], -2.4772. As to `CO[C@H]1C[C@@H]2CC[C@@H](C)[C@@](O)(O2)C(=O)C(=O)N2CCCC[C@H]2C(=O)O[C@H]([C@H](C)C[C@@H]2CC[C@@H](O)[C@H](OC)C2)CC(=O)[C@H](C)/C=C(\C)[C@@H](O)[C@@H](OC)C(=O)[C@H](C)C[C@H](C)/C=C/C=C/C=C/1C` [SIROLIMUS], the “Log 1/Km” value is reported as -0.9069. For the compound `C=CC[C@@H]1/C=C(\C)C[C@H](C)C[C@H](OC)[C@H]2O[C@@](O)(C(=O)C(=O)N3CCCC[C@H]3C(=O)O[C@H](/C(C)=C/[C@@H]3CC[C@@H](O)[C@H](OC)C3)[C@H](C)[C@@H](O)CC1=O)[C@H](C)C[C@@H]2OC` [TACROLIMUS ANHYDROUS], the “Log 1/Km” value was -0.792. Regarding `CC/C(=C(\c1ccccc1)c1ccc(OCCN(C)C)cc1)c1ccccc1` [TAMOXIFEN], the “Log 1/Km” value was -1.9912. `C[C@H](CCC(=O)NCCS(=O)(=O)O)[C@H]1CC[C@H]2[C@@H]3[C@H](O)C[C@@H]4C[C@H](O)CC[C@]4(C)[C@H]3CC[C@]12C` [TAUROCHENODEOXYCHOLATE]: the “Log 1/Km” value is -1.9542. For the compound `CC(C)(C)c1cc(CC2SCNC2=O)cc(C(C)(C)C)c1O` (stereo not drawn) [TAZOFELONE], the “Log 1/Km” value is -0.996. For `CS(=O)(=O)O.C[C@@H]1C[C@H]2[C@@H]3CCC4=CC(=O)C=C[C@]4(C)C3=CC[C@]2(C)[C@H]1C(=O)CN1CCN(c2cc(N3CCCC3)nc(N3CCCC3)n2)CC1` [TIRILAZAD MESYLATE], the “Log 1/Km” value is -0.2601.

As to `Cc1c(C)c2c(c(C)c1O)CCC(C)(COc1ccc(CC3SC(=O)NC3=O)cc1)O2` (stereo not drawn) [TROGLITAZONE], the “Log 1/Km” value was -2.7918.

Consider `COc1ccc(C(CN(C)C)C2(O)CCCCC2)cc1` (stereo not drawn) [VENLAFAXINE], for which the “Log 1/Km” value was 0.0899.

On to `CC[C@]1(O)C[C@@H]2CN(CCc3c([nH]c4ccccc34)[C@@](C(=O)OC)(c3cc4c(cc3OC)N(C)[C@H]3[C@@](O)(C(=O)OC)[C@H](OC(C)=O)[C@]5(CC)C=CCN6CC[C@]43[C@@H]65)C2)C1` [VINBLASTINE], for which the “Log 1/Km” value is listed as -0.834. As to `CC[C@]1(O)C[C@@H]2CN(CCc3c([nH]c4ccccc34)[C@@](C(=O)OC)(c3cc4c(cc3OC)N(C)[C@H]3[C@@](O)(C(N)=O)[C@H](O)[C@]5(CC)C=CCN6CC[C@]43[C@@H]65)C2)C1` [VINDESINE], the “Log 1/Km” value is -1.3927. Turning to `CN1[C@@H]2CC[C@H]1C[C@@H](NC(=O)c1cc(Cl)cc3c1OC(C)(C)C3)C2` [ZATOSETRON], the “Log 1/Km” value was -2.3901. In the case of `CC(c1cc2ccccc2s1)N(O)C(N)=O` (stereo not drawn) [ZILEUTON] it was -2.1938.
